The test system of one data set is Primary glial cells. In words: T-peptide toxicity in primary glial cells. Type of data set: cell-based. Conditions: data not shown.
In a further data set the test system is cortical neurons. In words: Live/Dead viability assay in cortical neurons. Conditions: 24 h, serum-free medium. Type of data set: cell-based. How it is done: (§1) Primary cultures and cell lines were treated in serum-free medium with T-peptide for 24 hours. Viability was quantified using the Live/Dead assay. * indicates p<0.05 compared with control cells that were treated with serum-free medium without peptide: (6A) Results from the analyses of cerebellar granule neurons, cortical neurons, and kidney fibroblasts cultured from rats, (6B) Results from the HT22 and HEK293 cell lines;
Cell viability quantification: Cell viability was quantified using the Live/Dead assays with a commercially available kit (Invitrogen). This is a two-color fluorescence assay utilizing two cell-permeable compounds, calcein acetoxymethyl (calcein AM) and ethidium homodimer-1 (EthD-1). Live cells have intracellular esterases that convert non-fluorescent calcein AM to the intensely green fluorescent calcein, which is retained within the cytoplasm of cells. Because dead cells have damaged membranes, EthD-1 enters and is fluorescent when bound to nucleic acids. EthD-1 stains the nuclei of damaged or dead cells. […] Cell viability was also analyzed using the MTT [3-(4,5-Dimethylthiazol-2-yl)-2,5-diphenyltetrazolium bromide] assay based on the evaluation of mitochondrial function. […] Absorbance was measured spectrophotometrically at 570 nm after an overnight incubation at room temperature.

Data set [1] concerns human embryonic kidney HEK293T cell line. Briefly: Live/Dead viability assay in HEK293T cell line. Type of data set: cell-based. The following applies: 24 h, serum-free medium. The method, then:
as §1
(§2) HT-22 and HEK293 cell culture: HT-22 cells were maintained in DMEM supplemented with 10% FCS, 50 U/ml penicillin and 50 μg/ml streptomycin. HEK293 were maintained in DMEM supplemented with 10% FCS, 50 U/ml penicillin and 50 μg/ml streptomycin. Both cell lines were treated with peptide at 70-80% confluency in serum-free media.
(§3) Cell viability quantification: Cell viability was quantified using the Live/Dead assays with a commercially available kit (Invitrogen). This is a two-color fluorescence assay utilizing two cell-permeable compounds, calcein acetoxymethyl (calcein AM) and ethidium homodimer-1 (EthD-1). […] Cell viability was also analyzed using the MTT [3-(4,5-Dimethylthiazol-2-yl)-2,5-diphenyltetrazolium bromide] assay based on the evaluation of mitochondrial function. […] Absorbance was measured spectrophotometrically at 570 nm after an overnight incubation at room temperature.

A further data set relates to kidney fibroblasts. Briefly: Live/Dead viability assay in primary kidney fibroblasts. The following applies: 24 h, serum-free medium. Type of data set: cell-based, rat. How it is done: as §1
Cultures of kidney fibroblasts and treatment with peptides: Kidneys were taken for 7-8 day old rats and placed in Dulbecco's Modified Eagle's Medium (DMEM). They were then diced and trypsinized for 8-12 mins. Trypsin was inactivated with trypsin inhibitor and centrifuged at 500 g for 1 min. Pellets were resuspended in DMEM and broken-up with a pasteur pipette 25 times, then centrifuged at 1000 g rpm for 1 min. […]
as §3

Data set [2] has as its system cerebellar granule neurons. In words: MTT assay in cerebellar granule neurons. Type of data set: cell-based, rat. The following applies: 24 h peptide treatment. The method, then: (§4) Cerebellar granule neurons were switched to serum-free medium containing various concentrations of T-peptide, K-peptide, Core-peptide, V-peptide, VV-peptide, and T (L)-peptide. Cell viability was measured using two independent methods 24 h after peptide treatment and results are graphed. * indicates p<0.05 compared with control cells that were treated with HK: (4A) Results from Red/Green viability assay, (4B) Results from MTT assay;
Culturing and treatment of neurons: Cerebellar granule neurons were cultured from 7-8 day old rats as previously described. The neurons were plated in 24-well with poly-L-lysine coated glass coverslips at a density of ˜1 million cells/well in Basal Eagle's Medium with Earle's salts (BME) supplemented with 10% FCS, 25 mM KCl, 2 mM glutamine and […] gentamicin. […]
as §3
(In general: Formazan colour is commonly taken as a measure of viable cells.)

The test system of data set [3] is cerebellar granule neurons. In words: Live/Dead (Red/Green) viability assay in cultured cerebellar granule neurons. Type of data set: cell-based, rat. The method, then:
Neuronal cultures were switched to serum-free medium T-peptide, K-peptide, Core-peptide, V-peptide. VV-peptide, and T (L)-peptide. All peptides were used at 25 μM concentration. Phase contrast micrographs show appearance of the cultures after 24 h of peptide treatment. The Live/Dead viability assay was also performed. Nuclei of dead cells are stained red whereas cytoplasm of living cells are stained green. In the case of sick and dying cells, green staining is condensed;
as §4
Culturing and treatment of neurons: Cerebellar granule neurons were cultured from 7-8 day old rats as previously described. The neurons were plated in 24-well with poly-L-lysine coated glass coverslips at a density of ˜1 million cells/well in Basal Eagle's Medium with Earle's salts (BME) supplemented with 10% FCS, 25 mM KCl, 2 mM glutamine and […] gentamicin. To prevent mitosis of glial cells, cytosine arabinofuranoside ([…]) was added to culture 16-20 hrs after plating. Neuronal cultures were treated with peptides 6-7 days after plating. For treatment, the cultures were switched to serum-free medium containing 25 mM KCl (referred to as high potassium or HK medium). Although serum is required for proper maturation, after 5 days in culture, the neurons survive normally in the absence of serum provided depolarizing levels of KCl is added.
Cell viability quantification: Cell viability was quantified using the Live/Dead assays with a commercially available kit (Invitrogen). This is a two-color fluorescence assay utilizing two cell-permeable compounds, calcein acetoxymethyl (calcein AM) and ethidium homodimer-1 (EthD-1). Live cells have intracellular esterases that convert non-fluorescent calcein AM to the intensely green fluorescent calcein, which is retained within the cytoplasm of cells. Because dead cells have damaged membranes, EthD-1 enters and is fluorescent when bound to nucleic acids. EthD-1 stains the nuclei of damaged or dead cells. As recommended by the manufacturer, cells plated in wells with cover-slips were incubated in Live/Dead reagent (1 uM calcein AM and 4 uM EthD-1) for 30 min, and then mounted on slides. Cell viability was also analyzed using the MTT [3-(4,5-Dimethylthiazol-2-yl)-2,5-diphenyltetrazolium bromide] assay based on the evaluation of mitochondrial function. MTT assays were performed as previously described. Briefly, MTT (5 mg/ml in culture medium) was added to the culture medium and the cells incubated at 37° C. for 1 h. The assay was stopped by adding lysis buffer [20% sodium dodecyl sulfate (SDS) in 50% N,N-dimethylformamide, pH 4.7]. Absorbance was measured spectrophotometrically at 570 nm after an overnight incubation at room temperature.

Data set [4] is described as follows: Live/Dead viability assay in HT-22 cell line. Type of data set: cell-based. The following applies: 24 h, serum-free medium. The method, then:
as §1, §2, §3

For a further data set, the system named is adult rat brains. In words: Stereotaxic injection of peptide into adult rat brain. Type of data set: in vivo. The source says:
Other aggregating peptides unrelated to tau are not neurotoxic. […] To examine this issue, we synthesized two peptides, STVIIE-R9 (designated at ST peptide), previously described by Pastor et al. (Pastor et al., 2008) and another de novo peptide, SQIVYA-R9. We were able to follow the kinetics of aggregation of both peptides into amyloid forming structures using the fluorescence of thioflavin-S and we characterized their morphology by TEM. […] Peptide induces neurodegeneration in the intact rat brain. […] To examine this issue, […] of T-peptide and K-peptide was sterotaxically injected into adult rat brains. Each animal received 2 injections—on one side into the striatum, and on the other side into the hippocampus. Rats were analyzed 1 week later. […] No damage is seen in the hippocampus however.

Turning to `CC[C@@H](C)[C@@H](NC(=O)[C@@H](CCC(N)=O)NC(=O)[C@H](NC(C)=O)C(C)C)C(=O)N[C@@H](C(=O)N[C@H](Cc1ccc(O)cc1)C(=O)N[C@H](CCCCN)C(=O)N[C@@H](CCCNC(=N)N)C(=O)N[C@@H](CCCNC(=N)N)C(=O)N[C@@H](CCCNC(=N)N)C(=O)N[C@@H](CCCNC(=N)N)C(=O)N[C@@H](CCCNC(=N)N)C(=O)N[C@@H](CCCNC(=N)N)C(=O)N[C@@H](CCCNC(=N)N)C(=O)N[C@@H](CCCNC(=N)N)C(=O)N[C@@H](CCCNC(=N)N)C(N)=O)C(C)C` [T-peptide, Ac-vqivyk-R9—NH2], the “sensitivity to T-peptide toxicity relative to neurons” value with Primary glial cells is recorded as “less sensitive than neurons”. Further, the “sensitivity to T-peptide induced toxicity relative to cerebellar granule neurons” value in the data set on cortical neurons is on record as “slightly less sensitive”. Also, the “doses up to which the cell line is resistant” value in data set [1] is “up to 50 μM”. Also, the “sensitivity to T-peptide toxicity relative to neuronal cell types” value in the data set on kidney fibroblasts is listed as “much less sensitive”. Besides, the “MTT assay result (mitochondrial function, words)” value in data set [2] is recorded as “confirmed using the MTT assay”. For the same compound, the “doses at which significant death is observable” value in data set [3] (24 h, serum-free HK medium) was at least 5 µM. Also, the “neurotoxicity / effect on neuronal survival” value in data set [3] (24 h peptide treatment, HK medium) is reported as “induces cell death in a concentration-dependent manner”. In addition, the “sensitivity to T-peptide toxicity” value in data set [4] is reported as “moderate level of sensitivity”. Also, in the data set with adult rat brains (200 mg injected into striatum and hippocampus, analyzed 1 week later), the “brain damage compared with K-peptide-injected rats” value is given as “display more damage than K-peptide-injected rats”. For the same compound, in the data set with adult rat brains (200 mg injected, 1 week), the “damage in corpus callosum” value was “shows damage and scarring”; the damage in hippocampus result is recorded as “does not seem to show much damage”; the damage in striatum entry is “shows obvious damage”; the lateral ventricle result was “enlarged”.

(Values after patent publication US20110144029A1, “Model Systems and Materials for the Study and Treatment of Neurodegenerative Diseases” (BOARD OF REGENTS, THE UNIVERSITY OF TEXAS SYSTEM, priority 2009, published 2011).)
